Test results published in patent publication EP0138995B1, “REGULATION OF ENZYMES WHICH UTILIZE TETRAHYDROBIOPTERIN OR TETRAHYDROFOLATE COFACTORS WITH 6, 6-DISUBSTITUTED-TETRAHYDROPTERIDINES” (South Alabama Medical Science Foundation, priority 1983, dated 1984).
Converted amounts (≈) assume the structure as drawn. Read-outs that look alike come from different tables or passages of the source. Blank lines part the entries; values can stand above or below the compound they belong to.

Tests used:
[1] = tested on: striatal tyrosine hydroxylase; conditions: cited from earlier work
[2] = tested on: phenylalanine hydroxylase; conditions: cited from earlier work
[3] = Near-saturation concentration at neutral pH; type: physicochemical; conditions: organic solvent or mixture, in 0.5 M 2-mercaptoethanol, room temperature, read-out: concentration of an almost saturated solution
Method: 2-Amino-4-hydroxy-6-methyl-6-phenyl-5,6,7,8-tetrahydropteridine ([…]): The above dry quinoid-dihydropteridine was reduced in near quantitative yield by addition of 0.5 M 2-mercaptoethanol at room temperature, such that the final concentration of product was approximately 10 mM (an almost saturated solution at neutral pH). To obtain the pure dihydrochloride salt, this solution was rotary evaporated to an oil which was dissolved in 2M HCl in methanol and 4 volumes of ethyl ether added, and the precipitate collected by centrifugation and washed twice by resuspension in fresh ethyl ether, followed by centrifugation.

[4] = Spectrophotometric pKa determination of quinoid dihydropterin; type: physicochemical; conditions: sodium succinate buffer; transition between neutral and monocationic species; sodium succinate buffers, I=0.01, 25°C
Method: pKa. The pKa for the transition between the neutral and monocationic species of q-6,6-Me₂PH₂ was determined spectrophotometrically. A concentrated stock solution of quinoid, free of elemental bromine, in n-propanol was diluted to 0.1 mM into a series of sodium succinate buffers at constant ionic strength (I=0.01). Spectra, background corrected for each buffer individually, were acquired on a Perkin-Elmer 552 spectrophotometer thermostated to 25°C.

[5] = molecular target: T1, phenylalanine hydroxylase (Rattus norvegicus, UniProt P04176); experiment: Inhibition of phenylalanine hydroxylase by dihydropterins; type: biochemical; conditions: concentrations up to 0.4 mM; 6,6-Me2PH4 as cofactor 0.05-0.3 mM
T1 construct: from tissue
T1 sequence (P04176 1-453): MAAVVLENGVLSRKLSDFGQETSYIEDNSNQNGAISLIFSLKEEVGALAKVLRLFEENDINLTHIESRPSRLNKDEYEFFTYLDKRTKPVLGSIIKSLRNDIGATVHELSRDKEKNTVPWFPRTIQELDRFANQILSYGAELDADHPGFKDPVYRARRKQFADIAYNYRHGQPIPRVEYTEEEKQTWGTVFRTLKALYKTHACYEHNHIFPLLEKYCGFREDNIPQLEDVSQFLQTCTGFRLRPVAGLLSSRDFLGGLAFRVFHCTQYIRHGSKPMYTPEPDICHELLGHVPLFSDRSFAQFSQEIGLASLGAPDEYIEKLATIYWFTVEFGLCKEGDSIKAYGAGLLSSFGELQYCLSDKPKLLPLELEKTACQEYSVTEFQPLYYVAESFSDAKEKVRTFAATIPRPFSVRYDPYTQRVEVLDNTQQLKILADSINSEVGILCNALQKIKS
Method: Measurements were made under standard assay conditions with cofactor concentration varied between 0.05 and 0.3 mM. Stock solutions of 6,6-Me₂PH₂ were in 0.1 M assay buffer.
Standard assay conditions, with 6-MePH₄ as cofactor over a range of 0.05 mM to 0.3 mM, were employed.

[6] = molecular target: T2, Beef Liver Dihydropteridine Reductase (Bos taurus, UniProt Q3T0Z7); experiment: Quinoid dihydropterin as substrate for dihydropteridine reductase (beef liver); type: biochemical
T2 construct: from tissue; host or cells: beef liver
T2 sequence (Q3T0Z7 1-242): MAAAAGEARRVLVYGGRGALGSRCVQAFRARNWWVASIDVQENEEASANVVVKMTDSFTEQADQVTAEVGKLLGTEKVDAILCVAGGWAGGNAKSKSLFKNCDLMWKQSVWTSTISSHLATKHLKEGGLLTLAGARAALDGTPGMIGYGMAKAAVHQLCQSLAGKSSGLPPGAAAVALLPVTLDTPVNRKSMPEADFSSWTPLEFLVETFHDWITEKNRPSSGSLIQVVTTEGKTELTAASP
Method: (§1) The quinoid was generated from 6,6-Me₂PH₄, as outlined previously. […] Peroxidase (6 units/ml final volume) was temperature equilibrated in 0.1 M Tris·HCl, pH 7.4, at 27° for 5 minutes. H₂O₂ (1.2 mM final concentration) was then added, followed by 6,6-Me₂PH₄. […] At 5 minutes, 6,6-Me₂PH₄ was introduced and monitored at 340 nm. […] Reaction was then initiated with dihydropteridine reductase (0.01 units/ml). Rates were calculated from the enzyme dependent decrease in O.D. at 340 nm, using an extinction coefficient of 9.8 for the chemically synthesized substrate and 6.2 for the peroxidase- and phenylalanine-hydroxylase-containing reactions in which the pterin is maintained in the quinoid form.

[7] = molecular target: T3, Sheep Liver Dihydropteridine Reductase (Ovis aries, UniProt A0ACI6QPJ5); experiment: Quinoid dihydropterin as substrate for dihydropteridine reductase (sheep liver); type: biochemical
T3 sequence (A0ACI6QPJ5 46-254): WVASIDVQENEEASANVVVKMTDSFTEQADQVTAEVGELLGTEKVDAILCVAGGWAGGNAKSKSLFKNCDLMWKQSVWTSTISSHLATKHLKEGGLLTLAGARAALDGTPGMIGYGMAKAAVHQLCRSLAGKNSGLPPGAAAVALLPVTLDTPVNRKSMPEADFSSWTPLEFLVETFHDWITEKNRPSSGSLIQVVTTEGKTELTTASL
Method: as §1, with “6,6-Me₂PH₄. Conversion to q-6,6-Me₂PH₂, monitored at 340 nm, was complete within a few seconds. • (iii) Generation by phenylalanine hydroxylase:” for “6,6-Me₂PH₄.”, “nm. Conversion of 6,6-Me₂PH₄ to quinoid dihydropterin was complete in 1-7 minutes, depending on the concentration.” for “nm.”, “form. […] This Km was obtained regardless of the method of generation of the quinoid dihydropterin. The Vmax's were also the same for the dihydropteridine reductase catalyzed reduction of quinoid generated by any of the three methods (Table VI). Thus, the quinoid products of each procedure appear to behave equally.” for “form.”

[8] = Stability (decay) of quinoid-6,6-Me2PH2 monitored spectrophotometrically; type: physicochemical
Method: Stability. The decay of q-6,6-Me₂PH₂ in a variety of environments was monitored spectrophotometrically. […] In water, a plateau of highest stability is observed near neutral pH. At pH 6.8, solutions kept on ice have a half-life greater than 100 hours. […] Loss of quinoid is somewhat increased in acid and greatly accelerated in base. […] This process is not affected by the presence of oxygen.

[9] = Non-enzymatic reduction of quinoid-6,6-Me2PH2 by physiological reducing agents; type: physicochemical; conditions: 0.1 M Tris·HCl, pH 7.4 at 37°
Method: Non-Enzymatic Reduction of Quinoid-6,6-Me₂PH₂ under Physiological Conditions. Aromatic amino acid hydroxylase cofactor analogs which are relatively stable in the quinoid-dihydro form may have therapeutic potential for treatment of dihydropteridine reductase deficiency. Thus, it was of interest to determine the rate at which quinoid is reduced to the tetrahydropterin by various physiological reducing agents. Rates were measured in 0.1 M Tris·HCl, pH 7.4 at 37°, from the decrease in absorbance at 340 nm. A reaction first order in each component was observed. With NADH, NADPH and absorbic acid, the rate of reduction (k=660 M⁻¹min⁻¹) was the same. The rate with cysteine was about four times slower (k=160 M⁻¹min⁻¹).

[10] = substrate produced by Bromine oxidation
[11] = substrate produced by Phe hydroxylase + phe

Compound: Nc1nc2c(c(=O)[nH]1)NC(c1ccccc1)CN2 (centres unmarked) [Compound 6-Phenyl-PH4, 6-phenyltetrahydropterin]
increase of Vmax compared to tetrahydrobiopterin [1]: 10 fold
decrease of Vmax compared to tetrahydrobiopterin [2]: 10 fold

solubility [3]: ~10 mM (≈ 2570 µg/mL)
Compound: CC1(c2ccccc2)CNc2nc(N)nc(O)c2N1 (centres unmarked) [6-Phenyl-6-Methyl-PH4, 2-Amino-4-hydroxy-6-methyl-6-phenyl-5,6,7,8-tetrahydropteridine]

pKa [4]: 5.15 ± 0.05
inhibition of purified phenylalanine hydroxylase [5]: No inhibition
Relative Vmax Beef [6, 10]: 1
Relative Vmax Beef ([6]; substrate produced by Peroxidase + H2O2): 1
Relative Vmax Beef [6, 11]: 1
Relative Vmax Sheep [7, 10]: 1
Relative Vmax Sheep [7, 11]: 1
half-life ([8]; 0.1 m tris-hcl, air, pH 7.4, pH 7.4 (0.1 M Tris·HCl), 27°C, air, read-out: t 1/2 (converted)): 4 h
half-life ([8]; 0.1 m tris-hcl, air, pH 7.4, pH 7.4 (0.1 M Tris·HCl), 37°C, air, read-out: t 1/2 (converted)): 1.25 h
half-life ([8]; 0.1 m tris-hcl, argon, pH 7.4, pH 7.4 (0.1 M Tris·HCl), 37°C, argon, read-out: t 1/2 (converted)): 1.25 h
half-life ([8]; 1n hcl, air, pH 0, pH 0 (1N HCl), 37°C, air, read-out: t 1/2 (converted)): 0.75 h
half-life ([8]; 1n hcl, argon, pH 0, pH 0 (1N HCl), 37°C, argon, read-out: t 1/2 (converted)): 0.75 h
half-life ([8]; aerated (CH3)2SO at -80°C): several weeks
half-life ([8]; dmso, aerated (CH3)2SO at ambient temperature, read-out: half-life (converted)): ~48 h
t 1/2 ([8]; pH 6.8 (Tris-MES 0.1M), 0°C (on ice), air): 104 h
storage stability of the dry powder ([8]; stored desiccated for several months at -80°C): no detectable change
half-life ([8]; tris-mes 0.1 m, air, pH 6.8, pH 6.8 (Tris-MES 0.1M), 0°C (on ice), air, read-out: t 1/2 (converted)): > 100 h
Compound: CC1(C)CNC2=NC(N)=NC(=O)C2=N1 [Quinoid-6,6-Me2PH2, 2-Amino-6,6-dimethyl-4-hydroxyquinoid-dihydropteridine]
stability relative to the quinoid forms of 6-methyldihydropterin or dihydrobiopterin [8]: one to two orders of magnitude more stable
rearrangement to a 7,8-dihydropterin ([8]; in contrast to quinoid dihydropterin monosubstituted at C6): does not appear to rearrange to a 7,8-dihydropterin
rate of reduction (k) ([9]; with NADH): 11 M⁻¹ s⁻¹
rate of reduction (k) ([9]; with NADPH): 11 M⁻¹ s⁻¹
rate of reduction (k) ([9]; with absorbic acid): 11 M⁻¹ s⁻¹
rate of reduction (k) ([9]; with cysteine): 2.67 M⁻¹ s⁻¹
